Measurements: US5496805A, “Inhibitors of neutral endopeptidase” (priority 1990, dated 1996)
Counter-ions that a name gives are not always drawn. Square brackets hold non-standard residues; d marks the D form. Peptide text beside a SMILES is read from it. Mpa = O=C(O)CCS

The compounds below were run against T1, neutral endopeptidase (Rattus norvegicus, UniProt P07861) (assay: biochemical). Details: enzyme purified from rat kidney; Dns-Gly-Phe-Arg 0.5 mM; pH 7.5; 37°, 30 minutes; inhibitor preincubated 10 minutes.
T1 sequence (P07861 1-750): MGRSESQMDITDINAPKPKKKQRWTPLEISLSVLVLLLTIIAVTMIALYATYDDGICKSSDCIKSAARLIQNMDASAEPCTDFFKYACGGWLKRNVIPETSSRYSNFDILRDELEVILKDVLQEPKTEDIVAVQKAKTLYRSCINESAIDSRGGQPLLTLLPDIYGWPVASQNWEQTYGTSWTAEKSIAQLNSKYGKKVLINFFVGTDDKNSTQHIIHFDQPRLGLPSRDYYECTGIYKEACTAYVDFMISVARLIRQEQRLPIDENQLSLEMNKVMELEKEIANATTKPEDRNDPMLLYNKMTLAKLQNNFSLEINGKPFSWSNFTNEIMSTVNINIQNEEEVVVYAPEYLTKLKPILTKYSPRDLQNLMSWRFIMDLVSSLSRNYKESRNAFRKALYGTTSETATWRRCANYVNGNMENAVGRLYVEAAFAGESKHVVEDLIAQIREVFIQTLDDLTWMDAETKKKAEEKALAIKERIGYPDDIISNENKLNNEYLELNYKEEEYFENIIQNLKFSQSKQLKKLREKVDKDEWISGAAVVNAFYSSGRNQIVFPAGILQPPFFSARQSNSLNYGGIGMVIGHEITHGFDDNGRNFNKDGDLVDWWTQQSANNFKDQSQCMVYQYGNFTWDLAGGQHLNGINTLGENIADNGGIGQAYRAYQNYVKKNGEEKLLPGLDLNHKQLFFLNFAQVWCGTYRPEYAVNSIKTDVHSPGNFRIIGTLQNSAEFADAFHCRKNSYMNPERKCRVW
Experimental: The in vitro neutral endopeptidase activity is determined using a fluorometric assay procedure. The assay is based upon the cleavage of the fluorescent dansylated tripeptide Dns-Gly-Phe-Arg to form Dns-Gly. The latter is extracted from the acidified mixture by ethyl acetate and is strongly fluorescent.
The incubation mixture employed for the assay contains the substance Dns-Gly-Phe-Arg (0.5 mM), tris(hydroxymethyl)aminomethane -HCl buffer (pH 7.5, 50 mM), an enzyme preparation in 0.05% Triton X-100, and water or inhibitor diluted to a final volume of 0.25 ml. The enzyme preparation is purified from rat kidney according to the procedure described by Almenoff et al. in Biochemistry Vol. 22, p. 590-599 (1983). The inhibitor is preincubated for 10 minutes with the enzyme preparation and buffer before the reaction is initiated by the addition of the substrate. Incubation is carried out at 37° for 30 minutes and the reaction is stopped by the addition of 0.25 ml. 1N HCl and extraction of the Dns-Gly product into 1.5 ml. of ethyl acetate. Relative fluorescent intensity (RFI) of the ethyl acetate extract is measured using a Ferrand Spectofluorometer at excitation and emission wavelengths of 342 and 508 nm., respectively, corrected for the RFI of a zero-time control, and compared with assays lacking inhibitor.
Runs are made at different concentrations of test compound and by use of a mathematical model the IC50 is determined. The IC50 is the concentration of test compound that inhibits activity of the enzyme by 50%.
Compound `C[C@@H](CS)C(=O)N[C@@H](Cc1ccc(O)c(O)c1)C(=O)O` [Example 15, 3-Hydroxy-N-(R-3-mercapto-2-methyl-1-oxopropyl)-L-tyrosine] has an IC50 of 0.03 µM.
`O=C(O)CCCCNC(=O)C(CS)Cc1ccccc1` (racemic) [Example 49, (±)-5-[[2-(Mercaptomethyl)-1-oxo-3-phenylpropyl]amino]pentanoic acid] gave an IC50 of 0.022 µM.
For `O=C(N[C@@H](Cc1c[nH]c2ccccc12)C(=O)O)C(CS)Cc1ccccc1` (mixture of isomers) [Example 28, (±)-N-[2-(Mercaptomethyl)-1-oxo-3-phenylpropyl]-L -tryptophan, 1,1-dimethylethanamine salt (1:1)], the IC50 was 0.0078 µM.
`O=C(N[C@@H](Cc1ccc(O)c(O)c1)C(=O)O)C(CS)Cc1ccccc1` (mixture of isomers) [Example 24, (±)-3-Hydroxy-N-[2-(mercaptomethyl)-1-oxo-3-phenylpropyl]-L-tyrosine, 1,1-dimethylethanamine salt (1:1)] was tested, and the IC50 was 0.047 µM.
With `CC(C)CC(CS)C(=O)N[C@@H](C)C(=O)N[C@@H](CCCN=C(N)N)C(=O)O` (single isomer, unassigned; isomer b) [Example 57, N-[N-[2-(Mercaptomethlyl)-4-methyl-1-oxopentyl]-L-alanyl]-L-arginine (isomer B)] the IC50 was 0.028 µM.
Compound `O=C(O)CCCCCNC(=O)C(CS)Cc1ccccc1` (racemic) [Example 50, (±)-6-[[2-(Mercaptomethyl)-1-oxo-3-phenylpropyl]amino]hexanoic acid] has an IC50 of 0.059 µM.
In the case of `CC(CS)C(=O)N[C@@H](Cc1c[nH]c2ccccc12)C(=O)O` (mixture of isomers) [Example 5, N-(DL-3-Mercapto-2-methyl-1-oxopropyl)-L-tryptophan], the IC50 is reported as 0.02 µM.
`CC(C)C[C@H](NC(=O)[C@H](Cc1ccccc1)NC(=O)[C@@H]1CCCC[C@H]1CS)C(=O)O` (mixture of isomers) [Example 67, (trans)-N-[N-[[2-(Mercaptomethyl)cyclohexyl]carbonyl]-L-phenylalanyl]-L-leucine] showed an IC50 of 0.97 µM.
`O=C(O)CCCCCCNC(=O)[C@H](Cc1ccccc1)N[C@@H](Cc1ccccc1)C(=O)O` [Example 79, 7-[[N-[(S)-l-Carboxy-2-phenylethyl]-L-phenylalanyl]amino]heptanoic acid] showed an IC50 of 0.94 µM.
`CC(C)C[C@H](NC(=O)C(Cc1ccccc1)CP(C)(=O)O)C(=O)O` (stereo partly drawn) [Example 74, N-[2-[(hydroxymethylphosphinyl)methyl]-1-oxo-3-phenylpropyl]-L-leucine, dilithium salt] gave an IC50 of 0.95 µM.
In the case of `CC(C)CC(CS)C(=O)NCCC(=O)N[C@@H](CCCNC(=N)N)C(=O)O` (mixture of isomers) [Example 58, (±)-N-[N-[2-(Mercaptomethyl)-4-methyl-1-oxopentyl]-β-alanyl]-L-arginine], the IC50 is reported as 0.095 µM.
`O=C(N[C@@H](Cc1ccccc1)C(=O)O)C(CS)Cc1ccccc1` (single isomer, unassigned; isomer b) [Example 32, N-[2-(Mercaptomethyl-1-oxo-3-phenylpropyl]-L-phenylalanine (isomer B)] showed an IC50 of 0.0089 µM.
With `O=C(O)CCCCC(=O)NC(CS)Cc1ccccc1` (centres unmarked) [Example 70, 6-[[1-(Mercaptomethyl)-2-phenylethyl]amino]-6-oxohexanoic acid] the IC50 was 0.0031 µM.
In the case of `CC[C@H](C)[C@H](NC(=O)[C@H](C)CS)C(=O)O` [Example 43, (S)-N-(3-Mercapto-2-methyl-1-oxopropyl)-L-isoleucine], the IC50 is reported as 0.064 µM.
Compound `CC(CS)C(=O)N[C@@H](CCC(=O)O)C(=O)O` (mixture of isomers) [Example 19, (±)-N-(3-Mercapto-2-methyl-1-oxopropyl)-L-glutamic acid, 1,1-dimethylethanamine salt (1:2)] has an IC50 of 0.11 µM.
In the case of `CC(C)CC(CS)C(=O)N[C@@H](CCCNC(=N)N)C(=O)O` (mixture of isomers) [Example 11, (±)-N^2-[2-(Mercaptomethyl)-4-methyl-1-oxopentyl]-L-arginine], the IC50 is reported as 0.17 µM.
`O=C(O)CCCCCCC(=O)NC(CS)Cc1ccccc1` (centres unmarked) [Example 71, 8-[[1-(MercaDtomethyl)-2-phenylethyl]amino]-8-oxooctanoic acid] showed an IC50 of 0.014 µM.
`CC(CS)C(=O)N[C@@H](CO)C(=O)O` (mixture of isomers) [Example 21, (±)-N-(3-Mercapto-2-methyl-1-oxopropyl)-L-serine, N-cyclohexylcyclohexamine salt(1:1)] was tested, and the IC50 was 0.28 µM.
Compound `O=C(O)CCCCCCCNC(=O)C(CS)Cc1ccccc1` (centres unmarked) [Example 51, 8-[[2-(Mercaptomethyl)-1-oxo-3-phenylpropyl]amino]-octanoic acid] has an IC50 of 0.02 µM.
`O=C(O)CCCNC(=O)C(CS)Cc1ccccc1` (racemic) [Example 46, (±)-4-[[2-(Mercaptomethyl)-1-oxo-3-phenylpropyl]amino]butanoic acid] was tested, and the IC50 was 0.006 µM.
Work on `O=C(O)CC(=O)NC(CS)Cc1ccccc1` (centres unmarked) [Example 69, 3-[[1-(Mercaptomethyl)-2-phenylethyl]amino]-3-oxo-propanoic acid] yielded an IC50 of 0.012 µM.
Work on `CCCC(C)C(CS)C(=O)NCC(=O)O` (racemic) [Example 10, (±)-N-[2-(Mercaptomethyl)-3-methyl-1-oxohexyl]-glycine, N-cyclohexylcyclohexanamine salt (1:1)] yielded an IC50 of 0.51 µM.
In the case of `CC(C)CC(CS)C(=O)N[C@@H](CC(C)C)C(=O)O` (mixture of isomers) [Example 34, (±)-N-[2-(Mercaptomethyl)-4-methyl-1-oxopentyl]-L-leucine], the IC50 is reported as 0.012 µM.
`O=C(CCS)N[C@@H](Cc1ccccc1)C(=O)N[C@@H](Cc1ccccc1)C(=O)O` [Example 62, N-[N-(3-Mercapto-1-oxopropyl)-L-phenylalanyl]-L-phenylalanine] ([Mpa]-Phe-Phe-OH) showed an IC50 of 0.74 µM.
With `CC(C)CC(CS)C(=O)NCC(=O)N[C@@H](CCCN=C(N)N)C(=O)O` (mixture of isomers) [Example 55, (±)-N-[N,[2-(Mercaptomethyl)-4-methyl-1-oxopentyl]-glycyl]-L-arginine] the IC50 was 0.53 µM.
In the case of `CC(C)C[C@H](NC(=O)[C@H](Cc1ccccc1)OP(=O)(O)CCc1ccccc1)C(=O)O` [Example 77, N-[(S)-2-[[Hydroxy(2-phenylethy1)phosphinyl]oxy]-1-oxo-3-phenylpropyl]-L-leucine, dilithium salt], the IC50 is reported as 2.2 µM.
`CC(CS)C(=O)N[C@@H](Cc1ccc(O)c(O)c1)C(=O)O` (mixture of isomers) [Example 7, 3-Hydroxy-N-(DL-3-mercapto-2-methyl-1-oxopropyl)-L-tyrosine] showed an IC50 of 0.054 µM.
With `O=C(O)CCNC(=O)[C@H](Cc1ccccc1)N[C@@H](Cc1ccccc1)C(=O)O` [Example 78, 3-[[N-[(S)-1-Carboxy-2-phenylethyl]-L-phenylalanyl]-amino]propanoic acid] the IC50 was 0.013 µM.
Compound `O=C(CCS)N[C@@H](Cc1ccccc1)C(=O)O` [Example 2, N-(3-Mercapto-1-oxopropyl)-L-phenylalanine] has an IC50 of 0.38 µM.
For `N=C(N)NCCC[C@H](NC(=O)CNC(=O)C(CS)Cc1ccccc1)C(=O)O` (stereo partly drawn) [Example 82, N-[N-[2-(Mercaptomethyl)-1-oxo-3-phenylpropyl]glycyl]-L-arginine], the IC50 was 0.015 µM.
With `CC(C)CC(CS)C(=O)N[C@@H](C)C(=O)O` (single isomer, unassigned; isomer a) [Example 12, N-[2-(Mercaptomethyl)-4-methyl-1-oxopentyl]-L-alanine (isomer A)] the IC50 was 0.0033 µM.
For `C[C@H](CS)C(=O)N[C@@H](CC(N)=O)C(=O)O` [Example 44, (S)-N^2-(3-Mercapto-2-methyl-1-oxopropyl)-L-asparagine], the IC50 was 0.22 µM.
